Laboratory results published in US20170218375A1, “MORPHOLINOS, MORPHOLINO UPREGULATING, AND ASSOCIATED METHODS” (University of Utah Research Foundation, priority 2011, published 2017).
{Dendrimer} = dendrimer conjugate (vivo-morpholino)

Key:
sVEGFR2 mRNA = test: RT-PCR of sVEGFR2 mRNA in mouse MS-1 cell line; assay type: cell-based
Source text: Because VEGFR2_MOe13 decreases mbVEGFR2 and increases sVEGFR2, it is expected that VEGFR2_MOe13 can inhibit angiogenesis and lymphangiogenesis in vivo. To study the effect of VEGFR2_MOe13 in animal models, moVEGFR2_MOe13 was created that targets the exon13-intron13 junction of the mouse VEGFR2 gene. By RT-PCR analysis, it was found moVEGFR2_MOe13 increased sVEGFR2 mRNA and decreased mbVEGFR2 mRNA in the mouse MS-1 cell line (FIG. 7A). […] FIGS. 7(f, g) show the mean area of corneal neovascularization and lymphangiogenesis respectively (n=13-16). Risk factors (p-value) were calculated by two-tail student's t-test (*: p<0.05, **p<0.01, ***p<0.001). Error bar is ±s.e.m.
Each morpholino oligomer was purchased from Gene Tools (Philomath, Oreg.). The sequences of each morpholino oligomer and primers for PCR are listed in supplemental Table. […] The cells were washed three times and fluorescence was detected by a FACScan Analyzer (BD Biosciences, San Jose, Calif.). […]
cDNAs were synthesized from 400 ng total RNA using Omniscript RT kit (Qiagen, Valencia, Calif.) and Oligo-dT primer(dT20) according to the manufacturer's instructions. Real-time PCR was performed using QuantiTect SYBR Green PCR Kit (Qiagen, Valencia, Calif.) and 1 μl of cDNA. […]

sVEGFR2/mbVEGFR2 mRNA = test: Real-time PCR of mouse retinal total RNA after intravitreous injection; assay type: in vivo; conditions: 2 μl of 100 ng/μl intravitreously on day 0 and day 3, retina on day 4, vivo-morpholino
Source text: To administer morpholinos in vivo, morpholino conjugated with a dendrimer at the 3′ position (vivo-morpholino) was used for animal experiments. It should be understood that this technique is merely exemplary, and any other method of administration is considered to be within the present scope. […] Next, the protein level of mbVEGFR2 and sVEGFR2 in the retina and the ocular solution was examined by western blot. Consistent with real-time PCR results, moVEGFR2_MOe13 decreased mbVEGFR2 protein in the retina (FIG. 7C) and increased sVEGFR2 protein in the ocular solution (FIG. 7D).
To examine whether moVEGFR2_MOe13 could work in the mouse eye, on day 0 and day 3 2 μl of 100 ng/μl moVEGFR2_MOe13 or STD_MO or DPBS were injected intravitreously. On day 4, retinal total RNA was extracted with RNeasy mini kit with DNaseI treatment. sVEGFR2 and mbVEGFR2 mRNA expression were determined by the method described above. For western blot of mbVEGFR2, on day 4, retina was dissolved in RIPA buffer. For western blot of sVEGFR2, on 4 day, intraocular solution was obtained from 6 eyes by pipette. After centrifuge, supernatant was used for further experiment. For western blot, biotin-conjugated anti-VEGFR2 (BAF644, R&D Systems, Minneapolis, Minn.) was used at 1 μg/μl.

[1] = test system: laser-induced choroidal neovascularization (CNV); test: Laser-induced choroidal neovascularization (CNV) in mouse; assay type: in vivo
Protocol: It was also examined whether moVEGFR2_MOe13 inhibits laser-induced choroidal neovascularization (CNV). Each morpholino or DPBS was injected intravitreously on day 1 and day 4 after laser photocoagulation, and laser CNV volumes were examined on day 7. […] Vessel endothelial cells were stained with Alexa fluor488 conjugated isolectin GS-IB4. […] After photocoagulation, on day 1 and day 4, 2 ul of 100 ng/μl STD_MO, 500 ng/μl Goat IgG (AB-108-C, R&D Systems, Minneapolis, Minn.), 100 ng/μl moVEGFR2_MOe13, 500 ng/μl Goat Anti-mouse VEGF-A IgG (AF-493-NA, R&D Systems, Minneapolis, Minn.) or 2 ng/μl SU1498 (572888, EMD chemicals, Gibbstown, N.J.) was injected intravitreously. On day 7, CNV volumes were measured by confocal microscope. n=14-20 for each group. Risk factors (p-value) were calculated by two-tail student's t-test (*: p<0.05, **p<0.01). Error bar is ±s.e.m.
Each morpholino oligomer was purchased from Gene Tools (Philomath, Oreg.). The sequences of each morpholino oligomer and primers for PCR are listed in supplemental Table. HUVECs (Lonza, Walkersville, Md.) were cultured in EBM with EGM SingleQuot Kit supplements and growth factors according to the manufacturer's instructions (Lonza, Walkersville, Md.). MS-1 cells, a mouse endothelial cell line (ATCC, Manassas, Va.) were cultured in 5% FBS/DMEM. Morpholino oligomers were delivered to the nucleus by nucleofection (Amaxa, Gaithersburg, Md.) with a Basic Nucleofector Kit for Primary Mammalian Endothelial Cells (Amaxa, Gaithersburg, Md.) using program A-034 for HUVEC and MS-1 cells. For each nucleofection, 1×10^6 cells were used and plated on a 6-well plate. After 2 days of culture, cells were trypsinized and total RNA was extracted using a RNeasy mini kit (Qiagen, Valencia, Calif.) with DNaseI treatment. Detection of mbVEGFR2 was achieved by flow cytometry. […] The cells were washed three times and fluorescence was detected by a FACScan Analyzer (BD Biosciences, San Jose, Calif.). […]

Substance: 5′-cacccagggatgcctccatacCTAG-3′ (antisense CACCCAGGGATGCCTCCATACCTAG; all phosphorodiamidate morpholino (PMO), 3' {Dendrimer}) [moVEGFR2_MOe13, morpholino that targets the exon13-intron13 junction of the mouse VEGFR2 gene; in vivo conjugated with a dendrimer (vivo-morpholino)]
- sVEGFR2 mRNA by RT-PCR (sVEGFR2 mRNA): increased
- sVEGFR2/mbVEGFR2 mRNA ratio in retina (sVEGFR2/mbVEGFR2 mRNA): significantly increased
- suppression of CNV compared with anti-VEGF-A IgG and SU1498 (FIG. 9) ([1]; 2 μl intravitreously day 1 and day 4: 100 ng/μl moVEGFR2_MOe13, 500 ng/μl anti-mouse VEGF-A IgG, 2 ng/μl SU1498, CNV volume day 7): comparable
- laser CNV volume ([1]; intravitreous injection on day 1 and day 4 after laser photocoagulation, volume on day 7, compared with STD_MO (p<0.05) and DPBS (p<0.01)): significantly suppressed
